Data: ChEMBL document CHEMBL2331241, “Synthesis of C-cinnamoyl glycosides and their inhibitory activity against mammalian carbonic anhydrases” (Bioorg Med Chem, 2013)

Legend:
[1] = target: Carbonic anhydrase 9 (Homo sapiens, UniProt Q16790); assay: Inhibition of human carbonic anhydrase 9 preincubated for 15 mins by CO2 hydration stopped-flow assay
[2] = target: Carbonic anhydrase 3 (Homo sapiens, UniProt P07451); assay: Inhibition of human carbonic anhydrase 3 preincubated for 15 mins by CO2 hydration stopped-flow assay
[3] = target: Carbonic anhydrase 5B, mitochondrial (Homo sapiens, UniProt Q9Y2D0)
Description: Inhibition of human carbonic anhydrase 5B preincubated for 15 mins by CO2 hydration stopped-flow assay

[4] = target: Carbonic anhydrase 6 (Homo sapiens, UniProt P23280); assay: Inhibition of human carbonic anhydrase 6 preincubated for 15 mins by CO2 hydration stopped-flow assay
Chain of Carbonic anhydrase 6 (P23280 whole entry): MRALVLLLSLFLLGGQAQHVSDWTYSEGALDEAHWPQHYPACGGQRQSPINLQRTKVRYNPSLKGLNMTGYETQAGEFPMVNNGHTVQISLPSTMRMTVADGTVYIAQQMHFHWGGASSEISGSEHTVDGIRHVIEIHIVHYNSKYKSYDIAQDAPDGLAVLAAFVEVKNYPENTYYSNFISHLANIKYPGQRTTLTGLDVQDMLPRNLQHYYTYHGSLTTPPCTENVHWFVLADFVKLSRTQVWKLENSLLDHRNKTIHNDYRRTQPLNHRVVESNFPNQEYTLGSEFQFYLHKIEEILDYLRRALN

Chain of Carbonic anhydrase 5B, mitochondrial (Q9Y2D0 whole entry): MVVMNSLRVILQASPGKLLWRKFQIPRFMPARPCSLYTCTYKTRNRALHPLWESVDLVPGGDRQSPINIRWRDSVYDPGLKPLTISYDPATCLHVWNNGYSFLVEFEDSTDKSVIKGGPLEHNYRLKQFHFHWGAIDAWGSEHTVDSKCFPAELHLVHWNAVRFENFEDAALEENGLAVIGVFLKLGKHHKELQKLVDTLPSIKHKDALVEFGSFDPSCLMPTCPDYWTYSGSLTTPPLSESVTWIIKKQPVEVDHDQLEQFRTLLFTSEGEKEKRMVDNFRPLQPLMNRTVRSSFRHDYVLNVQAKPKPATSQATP
Chain of Carbonic anhydrase 3 (P07451 whole entry): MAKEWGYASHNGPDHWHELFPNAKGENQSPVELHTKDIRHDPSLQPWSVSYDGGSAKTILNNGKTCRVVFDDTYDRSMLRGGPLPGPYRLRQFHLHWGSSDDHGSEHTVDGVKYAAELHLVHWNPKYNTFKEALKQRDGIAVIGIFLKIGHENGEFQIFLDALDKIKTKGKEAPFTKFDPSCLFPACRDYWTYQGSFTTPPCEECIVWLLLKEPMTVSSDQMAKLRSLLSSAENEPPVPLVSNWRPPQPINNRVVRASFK

CC(=O)OC[C@H]1O[C@@H](CC(=O)/C=C/c2ccc(O)cc2)[C@H](OC(C)=O)[C@@H](OC(C)=O)[C@H]1OC(C)=O
Ki [1]: 2.9 µM
Ki [2]: > 100 µM

O=C(/C=C/c1cccc(O)c1)C[C@@H]1O[C@H](CO)[C@@H](O)[C@H](O)[C@H]1O
Ki [1]: 4.5 µM
Ki [3]: > 100 µM
Ki [2]: > 100 µM

CC(=O)OC[C@H]1O[C@@H](CC(=O)/C=C/c2cccc(O)c2)[C@H](OC(C)=O)[C@@H](OC(C)=O)[C@H]1OC(C)=O
Ki [1]: 3.3 µM
Ki [2]: > 100 µM

CC(=O)OC[C@H]1O[C@@H](CC(=O)/C=C/c2cccc(O)c2)[C@H](OC(C)=O)[C@@H](OC(C)=O)[C@@H]1OC(C)=O
Ki [1]: 5.2 µM
Ki [2]: > 100 µM

O=C(/C=C/c1cccc(O)c1)C[C@@H]1O[C@H](CO)[C@H](O)[C@H](O)[C@H]1O
Ki [1]: 9.2 µM
Ki [3]: > 100 µM
Ki [2]: > 100 µM

O=C(/C=C/c1ccc(O)cc1)C[C@@H]1O[C@H](CO)[C@H](O)[C@H](O)[C@H]1O
Ki [4]: > 100 µM
Ki [1]: 8.2 µM
Ki [3]: > 100 µM
Ki [2]: 8.4 µM

CC(=O)OC[C@H]1O[C@@H](CC(=O)/C=C/c2ccc(O)cc2)[C@H](OC(C)=O)[C@@H](OC(C)=O)[C@@H]1OC(C)=O
Ki [1]: 5.9 µM
Ki [2]: > 100 µM

O=C(/C=C/c1ccc(O)cc1)C[C@@H]1O[C@H](CO)[C@@H](O)[C@H](O)[C@H]1O
Ki [4]: > 100 µM
Ki [1]: 8.2 µM
Ki [3]: > 100 µM
Ki [2]: > 100 µM
